Patent US7087609B2, “3-(pyridinyl-piperazin-1-yl)-phenylethyl amides as potassium channel openers” (Bristol-Myers Squibb Company, priority 2002, dated 2006)

Biological target: voltage-gated K+ channel KCNQ2 (Homo sapiens, UniProt O43526)
Assay: thallium flux assay to detect openers of KCNQ potassium channels
Type: cell-based
Settings: thallium influx assay; 10 point concentration series, 1:3 dilutions; concentration yielding 50% of maximal response (opening)
Source text: A thallium flux assay was used to detect and characterize openers of KCNQ potassium channels. The thallium assay is generally described in International application WO 02/31508 published Apr. 18, 2002. More specifically, the thallium influx assay to detect compounds that block or open the voltage-gated K^+ channel KCNQ2 is described in Example IV of the published WO 02/31508 application.
For data analysis, the amplitude of the average of the negative controls was subtracted from all wells. The amplitudes of the test compounds were then compared to the value of four standard deviations of the negative control wells. The lowest concentration of a test compound sufficient to generate a signal amplitude greater than or equal to four standard deviations from the amplitude of the negative controls was defined as the minimal active concentration.
For generating EC50 values, compounds were serially diluted in 1:3 volume increments to produce a 10 point concentration series. EC50 values were calculated by fitting the resulting amplitudes to a single-site logistic equation. EC50 was defined as the concentration of test compound required to yield 50% of the maximal response. Maximal response (Maximal opening) was the largest signal amplitude above the negative control generated by any concentration of a test compound.

voltage-gated K+ channel KCNQ2, sequence (O43526 whole entry): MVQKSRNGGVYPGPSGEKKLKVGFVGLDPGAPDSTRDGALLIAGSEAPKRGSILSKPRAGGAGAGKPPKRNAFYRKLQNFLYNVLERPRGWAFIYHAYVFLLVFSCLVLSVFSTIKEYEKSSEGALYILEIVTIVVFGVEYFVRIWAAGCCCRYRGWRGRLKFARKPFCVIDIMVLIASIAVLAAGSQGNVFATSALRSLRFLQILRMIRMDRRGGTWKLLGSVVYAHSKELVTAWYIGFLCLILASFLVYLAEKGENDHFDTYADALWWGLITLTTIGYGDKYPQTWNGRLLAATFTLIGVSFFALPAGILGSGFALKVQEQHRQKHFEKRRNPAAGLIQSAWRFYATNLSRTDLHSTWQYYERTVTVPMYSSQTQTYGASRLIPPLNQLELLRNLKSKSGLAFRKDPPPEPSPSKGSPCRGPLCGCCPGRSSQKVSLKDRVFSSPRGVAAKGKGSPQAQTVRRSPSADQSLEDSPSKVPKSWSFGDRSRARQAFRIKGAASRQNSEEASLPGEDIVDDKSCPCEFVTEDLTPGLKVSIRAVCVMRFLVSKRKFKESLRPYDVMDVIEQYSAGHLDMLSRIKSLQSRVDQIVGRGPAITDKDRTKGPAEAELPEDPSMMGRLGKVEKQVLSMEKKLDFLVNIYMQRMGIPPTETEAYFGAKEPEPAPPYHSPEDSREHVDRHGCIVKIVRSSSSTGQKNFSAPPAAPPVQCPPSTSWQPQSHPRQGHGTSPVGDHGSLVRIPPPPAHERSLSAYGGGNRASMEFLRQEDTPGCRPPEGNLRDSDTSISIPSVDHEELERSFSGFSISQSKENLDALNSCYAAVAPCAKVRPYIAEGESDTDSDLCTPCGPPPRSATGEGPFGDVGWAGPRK

| Compound | EC50 |
| --- | --- |
| C[C@H](NC(=O)/C=C/c1ccccc1F)c1cccc(N2CCN(c3ccccn3)CC2)c1 [Example 3, (S)-3-(2-Fluoro-phenyl)-N-{1-[3-(4-pyridin-2-yl-piperazin-1-yl)-phenyl]-ethyl}-acrylamide] | 476 nM |
| C[C@H](NC(=O)/C=C/c1cccc(F)c1F)c1cccc(N2CCN(c3ccccn3)CC2)c1 [Example 10, (S)-3-(2,3-Difluoro-phenyl)-N-{1-[3-(4-pyridin-2-yl-piperazin-1-yl)-phenyl]-ethyl}-acrylamide] | 1 nM |
| C[C@H](NC(=O)/C=C/c1ccc(F)cc1F)c1cccc(N2CCN(c3ccccn3)CC2)c1 [Example 11, (S)-3-(2,4-Difluoro-phenyl)-N-{1-[3-(4-pyridin-2-yl-piperazin-1-yl)-phenyl]-ethyl}-acrylamide] | 1 nM |
| C[C@H](NC(=O)/C=C/c1cc(F)ccc1F)c1cccc(N2CCN(c3ccccn3)CC2)c1 [Example 12, (S)-3-(2,5-Difluoro-phenyl)-N-{1-[3-(4-pyridin-2-yl-piperazin-1-yl)-phenyl]-ethyl}-acrylamide] | 4 nM |
| C[C@H](NC(=O)/C=C/c1c(F)cccc1F)c1cccc(N2CCN(c3ccccn3)CC2)c1 [Example 13, (S)-3-(2,6-Difluoro-phenyl)-N-{1-[3-(4-pyridin-2-yl-piperazin-1-yl)-phenyl]-ethyl}-acrylamide] | 280 nM |
| C[C@H](NC(=O)/C=C/c1ccc(Cl)cc1F)c1cccc(N2CCN(c3ccccn3)CC2)c1 [Example 17, (S)-3-(4-Chloro-2-fluoro-phenyl)-N-{1-[3-(4-pyridin-2-yl-piperazin-1-yl)-phenyl]-ethyl}-acrylamide] | 1 nM |
